Experimental data from paper PMC4850288, “Crystal Structure and Activity Studies of the C11 Cysteine Peptidase from Parabacteroides merdae in the Human Gut Microbiome” (The Journal of Biological Chemistry, 2016).
Changes are numbered by the printed parent chain.

Columns and labels:
[1] = target: T1, PmC11 (Parabacteroides merdae, UniProt A0ABF7PHE6); assay: fluorogenic AMC release, Lineweaver-Burk; type: biochemical; conditions: pH 8.0, 20 mM Tris, 150 mM NaCl, 37 °C; enzyme preincubated 16 h at 37 °C; 0-600 μM substrate
T1 construct: gene PARMER_00083; signal peptide Met1-Asn22 deleted (for structure); N-terminal tag MGSDKIHHHHHHENLYFQ/G, kept in assays; E. coli BL21 Star (DE3); monomer
T1 sequence (A0ABF7PHE6 23-147): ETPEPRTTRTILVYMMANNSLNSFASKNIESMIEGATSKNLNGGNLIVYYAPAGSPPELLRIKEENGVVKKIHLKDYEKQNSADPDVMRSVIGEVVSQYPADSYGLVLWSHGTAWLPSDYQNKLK
T1 sequence (A0ABF7PHE6 148-375): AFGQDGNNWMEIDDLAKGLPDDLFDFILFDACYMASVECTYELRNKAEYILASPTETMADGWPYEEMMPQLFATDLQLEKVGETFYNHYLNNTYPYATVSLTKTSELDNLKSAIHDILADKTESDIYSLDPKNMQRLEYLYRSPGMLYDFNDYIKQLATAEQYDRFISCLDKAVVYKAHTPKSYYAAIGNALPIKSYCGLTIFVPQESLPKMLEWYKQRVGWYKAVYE
Method: (§1) fluorogenic AMC release, Lineweaver-Burk on PmC11 | Km and Vmax of PmC11 and K147A mutant were determined by monitoring change in the fluorescence

[2] = target: T2, PmC11 (Parabacteroides merdae, UniProt A0ABF7PHE6, K147A, form not given); assay: fluorogenic AMC release, Lineweaver-Burk; type: biochemical; conditions: pH 8.0, 20 mM Tris, 150 mM NaCl, 37 °C; enzyme preincubated 16 h at 37 °C; 0-600 μM substrate; unprocessed cleavage-site mutant
T2 construct: gene PARMER_00083; signal peptide Met1-Asn22 deleted (for structure); N-terminal tag MGSDKIHHHHHHENLYFQ/G, kept in assays; E. coli BL21 Star (DE3); monomer
T2 sequence (A0ABF7PHE6 23-147 K147A): T1 sequence (A0ABF7PHE6 23-147) with K125A
T2 sequence (A0ABF7PHE6 148-375): T1 sequence (A0ABF7PHE6 148-375)
Method: as §1

Q: With `Cc1cc(=O)oc2cc(NC(=O)[C@H](CCCNC(=N)N)NC(=O)c3ccccc3)ccc12` [Bz-R-AMC, benzoyl-L-Arg-4-methylcoumaryl-7-amide] as the compound, how does the Km [1] read?
A: 274 ± 6 µM

Q: What about the Km [2] of the same compound?
A: 301 ± 239 µM
